From paper PMC10257182, “Discovery of senolytics using machine learning” (Nature Communications, 2023)
Counter-ions that a name gives are not always drawn. Like-named read-outs stand apart in the source and are kept apart here.

Columns and labels:
Type in all cases: cell-based, human
[1] = tested on: senescent IMR90 ER:RAS cells (4-OHT-induced); assay: Nuclei count (Hoechst, high content imaging) senolytic assay, oncogene-induced senescence (OIS) model, senescent cells; conditions: for viability at 10 µM / viability at 4.677 µM / viability at 2.188 µM / viability at 1 µM / viability at 0.4677 µM / viability at 0.2188 µM / viability at 0.1 µM / viability at 0.04677 µM / viability at 0.02188 µM / viability at 0.01 µM: Homo sapiens
From the text: To test for senolytic activity, we compared the effect of each compound on the total cell number (automated high content image-based analysis of total number of nuclei per well) in non-senescent and senescent IMR90 ER:RAS cultures treated with the top hits from the computational screen (Figs. 2e and 3a–d and Supplementary Fig. 4a–c). The drop in cell number compared to untreated controls is indicated by the nuclei count and reflects cell death[13],[15]. As positive control, we employed ouabain, a cardiac glycoside with well characterised senolytic activity.
(§1) We performed experimental validation of the compounds with z-score > 8 (Fig. 2e). […] We employed two cellular models of senescence: one of OIS and a second one of TIS. For the OIS case, we utilised IMR90 ER:RAS cells with 4-OHT at 100 nM. […] For the TIS model, we used A549 cells with etoposide at 100 μM. The exposure of the cells to etoposide lasted 48 h, after which period the cells were cultivated for a further three days with normal media.
(§2) IMR90 (CCL-186) human foetal lung fibroblasts and A549 (CCL-185) human lung adenocarcinoma cells were obtained from the American Type Culture Collection (ATCC, Manassas, VA). The cell lines were confirmed to be mycoplasma negative (Lonza MycoAlert, cat #LT07-118). IMR90 ER:RAS is a derivative of IMR90 cells expressing a switchable version of oncogenic H-Ras[84]. IMR90 ER:RAS and A549 cells were maintained in Dulbecco’s Modified Eagle Medium (DMEM, ThermoFisher) supplemented with foetal bovine serum (10%), L-glutamine (2 mM, ThermoFisher), and antibiotic-antimycotic solution (1%, ThermoFisher) and incubated under standard tissue culture conditions (37 °C and 5% CO2). For induction of the senescent phenotype, IMR90-ER:RAS cells were cultured in hydroxytamoxifen (4-OHT) (Sigma) added media at 100 nM final concentration. IMR90 were kept in culture for over 27 passages for replicative senescence. Cells were tested for mycoplasma on a regular basis.
(§3) Cells were seeded (50 μL per well) into 384-well plates (IMR90 ER:RAS cells in Nunc Optical Bottom Polybase Microplates [#142761, Thermo Scientific, Rochester, NY] and A549 cells in CELLSTAR Cell Culture Microplates [#781091, Greiner Bio-One, Kremsmünster, Austria]). Cells were incubated under standard tissue culture conditions for 24 h before the addition of compounds. Passage 14 IMR90 ER:RAS cells were seeded at 1300 cells per well in the control condition, and at 1600 cells per well in the senescent case. Passage 34 A549 cells were seeded at 7000 cells per well in the control condition, and at 10,000 cells per well in the senescent case.
(§4) Dose response plates were prepared with a DMSO control and a 10-point […] concentration range, and added to the compounds using a D300e digital dispenser (Tecan Trading AG, Switzerland) at a final concentration of between 10 μM and 10 nM. Every screened condition was carried out in triplicate. After 72 h of incubation with exposure to the compounds, cells were fixed by the addition of an equal volume of formaldehyde (8%, 50 μL; #BP531-500, Fisher Bioreagents, Fisher Scientific, Loughborough, Leicestershire) to the existing media, incubated at room temperature (30 min), and washed three times in phosphate-buffered saline (PBS). Cells were then permeabilised in Triton-X100 (0.1%, 50 μL) and incubated at room temperature (30 min) followed by three more washes with PBS.
(§5) Cells were stained with Hoechst 33342 for nuclei count (excitation/emission wavelength at 387/447 […], DAPI channel, original concentration at 10 mg/ml, final concentration at 2 μg/ml; H1399, Molecular Probes, Eugene, OR). The staining solution was prepared in bovine serum albumin solution (10%). The staining solution was added to each well (30 μL) and incubated in the dark at room temperature (30 min), followed by three washes with PBS and no final aspiration. Plates were foil sealed.

[2] = tested on: senescent A549 cells (etoposide-induced); assay: Nuclei count senolytic assay, therapy-induced senescence (TIS) model, senescent cells; conditions: Homo sapiens
Protocol: (§6) We performed a second validation of the effectiveness of our machine learning models using a different stressor. We focused on therapy-induced senescence (TIS, Supplementary Fig. 6a), where human epithelial cancerous cells (A549) were induced to become senescent by addition of etoposide. Cells were treated with 100 μM etoposide for 48 h, followed by another three days of exposure to media in standard conditions.
as §1, §2, §3, §4, §5
(§7) Plates were imaged on an ImageXpress micro XLS (Molecular Devices, Eugene, OR) equipped with a robotic plate loader (Scara4, PAA, UK).

[3] = tested on: non-senescent control A549 cells; assay: Nuclei count senolytic assay, TIS model, non-senescent control cells; conditions: Homo sapiens
Protocol: as §6, §1, §2, §3, §4, §5, §7

[4] = A549, read-out: Mean % Cell Survival

## C[C@H](CCC(=O)NCCS(=O)(=O)O)[C@H]1CC[C@H]2[C@@H]3[C@H](O)C[C@@H]4C[C@H](O)CC[C@]4(C)[C@H]3C[C@H](O)[C@]12C [Taurocholic acid sodium, taurocholic acid sodium salt hydrate]
[1]; IMR-90, 72 h, read-out: Mean % Cell Survival, Senescent, log (dose) [M] -5, 72 h, mean n=3 (Fig 3C)
  viability at 10 µM: 110%
[1]; IMR-90, 72 h, read-out: Mean % Cell Survival, Senescent, log (dose) [M] -5.33, 72 h, mean n=3 (Fig 3C)
  viability at 4.677 µM: 132%
[1]; IMR-90, 72 h, read-out: Mean % Cell Survival, Senescent, log (dose) [M] -5.66, 72 h, mean n=3 (Fig 3C)
  viability at 2.188 µM: 115%
[1]; IMR-90, 72 h, read-out: Mean % Cell Survival, Senescent, log (dose) [M] -6, 72 h, mean n=3 (Fig 3C)
  viability at 1 µM: 123%
[1]; IMR-90, 72 h, read-out: Mean % Cell Survival, Senescent, log (dose) [M] -6.33, 72 h, mean n=3 (Fig 3C)
  viability at 0.4677 µM: 106%
[1]; IMR-90, 72 h, read-out: Mean % Cell Survival, Senescent, log (dose) [M] -6.66, 72 h, mean n=3 (Fig 3C)
  viability at 0.2188 µM: 99.8%
[1]; IMR-90, 72 h, read-out: Mean % Cell Survival, Senescent, log (dose) [M] -7, 72 h, mean n=3 (Fig 3C)
  viability at 0.1 µM: 96.6%
[1]; IMR-90, 72 h, read-out: Mean % Cell Survival, Senescent, log (dose) [M] -7.33, 72 h, mean n=3 (Fig 3C)
  viability at 0.04677 µM: 108%
[1]; IMR-90, 72 h, read-out: Mean % Cell Survival, Senescent, log (dose) [M] -7.66, 72 h, mean n=3 (Fig 3C)
  viability at 0.02188 µM: 112%
[1]; IMR-90, 72 h, read-out: Mean % Cell Survival, Senescent, log (dose) [M] -8, 72 h, mean n=3 (Fig 3C)
  viability at 0.01 µM: 107%
[1]; IMR-90, read-out: % Cell Survival, Senescent cells, log (dose) [M] -6.66, individual replicates, SUP FIG 4C
  viability at 0.2188 µM: 105%
[1]; IMR-90, read-out: % Cell Survival, Senescent cells, log (dose) [M] -7, individual replicates, SUP FIG 4C
  viability at 0.1 µM: 101%
[1]; IMR-90, read-out: % Cell Survival, Senescent, log (dose) [M] -5.33
  viability at 4.677 µM: 118%
[1]; experimental screen, OIS IMR90 ER:RAS
  senolytic activity (in words): inactive
[2]; [4]
  viability at 0.01 µM: 103%
  viability at 0.0219 µM: 108%
  viability at 0.0468 µM: 103%
  viability at 0.1 µM: 100%
  viability at 0.219 µM: 109%
  viability at 0.468 µM: 113%
  viability at 1 µM: 112%
  viability at 2.19 µM: 106%
  viability at 4.68 µM: 109%
  viability at 10 µM: 107%
[3]; [4]
  viability at 0.01 µM: 66.6%
  viability at 0.0219 µM: 32.6%
  viability at 0.0468 µM: 97.7%
  viability at 0.1 µM: 29.1%
  viability at 0.219 µM: 62.6%
  viability at 0.468 µM: 97.8%
  viability at 1 µM: 95.9%
  viability at 2.19 µM: 69.4%
  viability at 4.68 µM: 66.2%
  viability at 10 µM: 96.3%

## O=c1cc(-c2ccc(O)cc2)oc2cc(O)c(O)c(O)c12 [Scutellarein, scutellarein]
[1]; IMR-90, 72 h, Senescent, log (dose) [M] -5, 72 h, mean n=3 (Fig 3C), read-out: Mean % Cell Survival
  viability at 10 µM: 124%
[1]; IMR-90, 72 h, Senescent, log (dose) [M] -5.33, 72 h, mean n=3 (Fig 3C), read-out: Mean % Cell Survival
  viability at 4.677 µM: 124%
[1]; IMR-90, 72 h, Senescent, log (dose) [M] -5.66, 72 h, mean n=3 (Fig 3C), read-out: Mean % Cell Survival
  viability at 2.188 µM: 132%
[1]; IMR-90, 72 h, Senescent, log (dose) [M] -6, 72 h, mean n=3 (Fig 3C), read-out: Mean % Cell Survival
  viability at 1 µM: 124%
[1]; IMR-90, 72 h, Senescent, log (dose) [M] -6.33, 72 h, mean n=3 (Fig 3C), read-out: Mean % Cell Survival
  viability at 0.4677 µM: 137%
[1]; IMR-90, 72 h, Senescent, log (dose) [M] -6.66, 72 h, mean n=3 (Fig 3C), read-out: Mean % Cell Survival
  viability at 0.2188 µM: 132%
[1]; IMR-90, 72 h, Senescent, log (dose) [M] -7, 72 h, mean n=3 (Fig 3C), read-out: Mean % Cell Survival
  viability at 0.1 µM: 115%
[1]; IMR-90, 72 h, Senescent, log (dose) [M] -7.33, 72 h, mean n=3 (Fig 3C), read-out: Mean % Cell Survival
  viability at 0.04677 µM: 122%
[1]; IMR-90, 72 h, Senescent, log (dose) [M] -7.66, 72 h, mean n=3 (Fig 3C), read-out: Mean % Cell Survival
  viability at 0.02188 µM: 106%
[1]; IMR-90, 72 h, Senescent, log (dose) [M] -8, 72 h, mean n=3 (Fig 3C), read-out: Mean % Cell Survival
  viability at 0.01 µM: 100%
[1]; IMR-90, Senescent cells, log (dose) [M] -5.33, individual replicates, SUP FIG 4C, read-out: % Cell Survival
  viability at 4.677 µM: 129%
[1]; IMR-90, Senescent, log (dose) [M] -6.66, read-out: % Cell Survival
  viability at 0.2188 µM: 97.8%
[1]; IMR-90, Senescent, log (dose) [M] -7.33, read-out: % Cell Survival
  viability at 0.04677 µM: 91.2%
[1]; IMR-90, Senescent, log (dose) [M] -8, read-out: % Cell Survival
  viability at 0.01 µM: 100%
[2]; A549, log (dose) [M] -5, Senescent cells, mean, read-out: Mean % Cell Survival
  viability at 10 µM: 108%
[2]; A549, log (dose) [M] -5.33, Senescent cells, mean, read-out: Mean % Cell Survival
  viability at 4.68 µM: 104%
[2]; A549, log (dose) [M] -5.66, Senescent cells, mean, read-out: Mean % Cell Survival
  viability at 2.19 µM: 105%
[2]; A549, log (dose) [M] -6, Senescent cells, mean, read-out: Mean % Cell Survival
  viability at 1 µM: 135%
[2]; A549, log (dose) [M] -6.33, Senescent cells, mean, read-out: Mean % Cell Survival
  viability at 0.468 µM: 106%
[2]; A549, log (dose) [M] -6.66, Senescent cells, mean, read-out: Mean % Cell Survival
  viability at 0.219 µM: 103%
[2]; A549, log (dose) [M] -7, Senescent cells, mean, read-out: Mean % Cell Survival
  viability at 0.1 µM: 81.8%
[2]; A549, log (dose) [M] -7.33, Senescent cells, mean, read-out: Mean % Cell Survival
  viability at 0.0468 µM: 88.6%
[2]; A549, log (dose) [M] -7.66, Senescent cells, mean, read-out: Mean % Cell Survival
  viability at 0.0219 µM: 97.4%
[2]; A549, log (dose) [M] -8, Senescent cells, mean, read-out: Mean % Cell Survival
  viability at 0.01 µM: 91.3%
[3]; A549, log (dose) [M] -5, Control cells, mean, read-out: Mean % Cell Survival
  viability at 10 µM: 111%
[3]; A549, log (dose) [M] -5.33, Control cells, mean, read-out: Mean % Cell Survival
  viability at 4.68 µM: 112%
[3]; A549, log (dose) [M] -5.66, Control cells, mean, read-out: Mean % Cell Survival
  viability at 2.19 µM: 105%
[3]; A549, log (dose) [M] -6, Control cells, mean, read-out: Mean % Cell Survival
  viability at 1 µM: 108%
[3]; A549, log (dose) [M] -6.33, Control cells, mean, read-out: Mean % Cell Survival
  viability at 0.468 µM: 102%
[3]; A549, log (dose) [M] -6.66, Control cells, mean, read-out: Mean % Cell Survival
  viability at 0.219 µM: 109%
[3]; A549, log (dose) [M] -7, Control cells, mean, read-out: Mean % Cell Survival
  viability at 0.1 µM: 102%
[3]; A549, log (dose) [M] -7.33, Control cells, mean, read-out: Mean % Cell Survival
  viability at 0.0468 µM: 99.3%
[3]; A549, log (dose) [M] -7.66, Control cells, mean, read-out: Mean % Cell Survival
  viability at 0.0219 µM: 98.3%
[3]; A549, log (dose) [M] -8, Control cells, mean, read-out: Mean % Cell Survival
  viability at 0.01 µM: 99.7%
